Source: patent US11963998B2, “Modulation of heparin-binding epidermal growth factor activity for tympanic membrane healing” (The Board of Trustees of the Leland Stanford Junior …, priority 2013, dated 2024)

B1: HB-EGF: recombinant heparin binding epidermal growth factor, delivered in a bioabsorbable chitosan-based polymer gel at 5 μg/ml (protein, UniProt Q99075 63-148, looked up)
Heparin-binding EGF-like …: DLQEADLDLLRVTLSSKPQALATPNKEEHGKRKKKGKGLGKKRDPCLRKYKDFCIHGECKYVKELRAPSCICHPGYHGERCHGLSL
modifications: Heparin-binding EGF-like growth factor in chitosan-based gel

What was measured:
[1] = test system: acute tympanic perforations in mice; experiment: HB-EGF inhibitor applied to acute tympanic membrane perforations (chronic TM perforation model); assay type: in vivo; conditions: for Perforations open at 2 months / Perforations open at 3 months: mice, OSU8-1 10 mM on gel foam over seven days
Experimental: EGFR ligand shedding can be inhibited to create a chronic tympanic membrane perforation model. Subtotal perforations were created in the pars tensa of TMs in 20 mice using a curved needle. OSU8.1 (10 mM), a selective HB-EGF inhibitor (see Tokumaru et al. (2000) J. Cell Biol.), was injected onto gel foam (placed through and onto the perforation) over seven days. Mice were sacrificed at time points (Day 2, 7, 14, 30, 44, 60 and 90) to observe the effects on keratinocyte migration. The contralateral ear was used as a control with saline placed onto gel foam. All of these were closed within 2 weeks. Five of seven (71%) of the treatment ears were open at three months. Perforation size was stable over three months (using ImageJ to calculate the perforation area as a percentage of the pars tensa area). A larger cohort was undertaken with 87.9% (n=58) having chronic perforations at 3 months.
100% of HB-EGF inhibitor treated perforations were present at two months compared to 5% of controls and 71% were present at three months compared to 5% of controls

[2] = test system: chronic perforation model with ET occlusion inoculated with Pseudomonas aeruginosa; experiment: HB-EGF treatment in animal model for chronic suppurative otitis media (CSOM); assay type: in vivo, mice; conditions: polymer and HB-EGF at 5 μg/ml
From the text: Testing in an animal model for chronic suppurative otitis media. After creating the chronic perforation model with ET occlusion, Pseudomonas aeruginosa (dose of 6×10^9 colony forming units per ml) were inoculated into the middle ear through the existing chronic perforations. At 2 weeks the ear fluid was collected and sent for polymerase chain reaction (PCR) to confirm the presence of bacteria. This positive PCR validated the CSOM model. The mice were then divided into two cohorts. One received polymer only. The other received polymer and HB-EGF at 5 μg/ml (same dose used in above models). 100% of the HB-EGF group healed (16 of 16) compared to 41% (7/17) in the control group (p<0.01). In the control group the healing was also different when it did occur. The TM was often very thin and transluscent compared to a slightly opaque normal TM. […] The ability to still overcome this critical step in TM chronic wound healing using HB-EGF to activate EGFR ectodomain ligand in the closest model to human CSOM validates the method of treatment.

[3] = test system: chronic perforations in mice ears; experiment: HB-EGF treatment of chronic tympanic membrane perforations; assay type: in vivo; conditions: 40 μl gel, 5 μg/ml, sustained release chitosan-based polymer; at 4 weeks; p<0.01 vs polymer only
Experimental: HB-EGF heals chronic tympanic membrane perforations. When a cohort of chronic perforations in mice ears were treated with 40 μl of a gel containing recombinant HB-EGF at a concentration of 5 μg/ml (sustained release dose via a bioabsorbable chitosan-based polymer) 92% (22 of 24) healed, compared to 38% (10 of 26) of controls (polymer only) at 4 weeks (p<0.01). […] This is the first growth factor treatment tested in an animal model of chronic perforation that has shown significant benefit over control.

[4] = test system: chronic perforations and ET occlusion in mice; experiment: HB-EGF treatment of chronic TM perforations with Eustachian tube occlusion; assay type: in vivo
Experimental: HB-EGF heals chronic tympanic membrane perforations with Eustachian tube occlusion. An existing rat model of ET occlusion (see Herda et al. (2002) Laryngoscope 112:1657-62) was adapted to the mouse and has since been performed in 80 live mice with success. The ET occlusion was performed with the chronic perforation model described above. This created a wet sterile discharging perforation at 3 months. This model mimics the human condition of chronic perforation combined with ET dysfunction.
When a cohort of mice with this model (chronic perforations and ET occlusion) were treated with recombinant HB-EGF, 40 μl at a concentration of 5 μg/ml (sustained release dose via a bioabsorbable chitosan polymer) 94% (18 of 19) healed compared to 9% (2 of 23) of controls (polymer only) at 6 weeks (p<0.01). […] The ability to overcome this critical step in TM chronic wound healing using HB-EGF to activate EGFR ectodomain ligand shedding in the presence of middle ear effusions and ET occlusion is useful in treating patients with chronic tympanic membrane perforation.

Row | Molecule | chronic perforations at 3 months, larger cohort ([1]; larger cohort, n=58, 3 months) [%] | Perforations open at 2 months [1] [%] | Perforations open at 2 months ([1]; listed as HB-EGF inhibitor) [%] | Perforations open at 3 months ([1]; 3 months) [%] | Perforations open at 3 months ([1]; 3 months, listed as HB-EGF inhibitor) [%] | Perforations open at 3 months ([1]; 3 months, listed as OSU8.1) [%] | Perforation size (perforation area as a percentage of the pars tensa area) ([1]; over three months, ImageJ) | appearance of healing in CSOM model [2] | perforations healed in CSOM model ([2]; p<0.01 vs polymer only) [%] | chronic perforations healed [3] [%] | chronic perforations with ET occlusion healed ([4]; 40 μl at 5 μg/ml, sustained release chitosan polymer, at 6 weeks, p<0.01 vs polymer only) [%] | histology of perforation closure ([4]; chronic perforations and ET occlusion model)
1 | CNC(=O)[C@@H](NC(=O)[C@H](CC(C)C)[C@H](C)C(=O)NO)c1ccccc1 [OSU8-1] | 87.9 | 100 | 100 | 71 | 71 | 71 | stable | – | – | – | – | –
2 | B1 | – | – | – | – | – | – | – | appeared normal | 100 | 92 | 94 | close with thick layer of keratinocytes
